“And” between values parts separate entries of the source, which are not always exact repeats. Equal entries are not always repeated.
Test system: BDF1 mice, Adenocarcinoma 755 s.c., tumor weight T/C
Assay: NCI In Vivo Anticancer Drug Screen. Data for tumor model Adenocarcinoma 755 (subcutaneous) in B6D2F1 (BDF1) mice
Details: endpoint: mean tumor weight, higher = larger tumour
Outline: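 Tumor-bearing mice receive test compound while controls get vehicle alone. Antitumor effect is scored from survival or tumor dimensions as a T/C quotient.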

[1] = dose: 30.0 mg/kg/injection, schedule: Q01DX011 (ip), vehicle: carboxymethylcellulose (CMC)
[2] = dose: 60.0 mg/kg/injection, schedule: Q01DX011 (ip), vehicle: carboxymethylcellulose (CMC)

**Q.** `CC1CCC(n2cnc3c(Cl)ncnc32)O1` (centres undefined) was tested. Which T/C (dose: 3.7 mg/kg/injection, schedule: Q01DX011 (ip), vehicle: carboxymethylcellulose (CMC)) did it give?
**A.** The T/C was 58 % of control.

**Q.** And the T/C (dose: 7.5 mg/kg/injection, schedule: Q01DX011 (ip), vehicle: carboxymethylcellulose (CMC))?
**A.** Its T/C is 35 % of control.

**Q.** What about the T/C (dose: 15.0 mg/kg/injection, schedule: Q01DX011 (ip), vehicle: carboxymethylcellulose (CMC)) of the same compound?
**A.** The T/C was 63 % of control.

**Q.** And the T/C [1]?
**A.** Its T/C is 15 % of control and 23 % of control.

**Q.** What about the T/C [2] of the same compound?
**A.** Its T/C is 5 % of control.

**Q.** Which T/C [1] does the source give for `O=C(Nc1ccc(N=Nc2ccc(O)c(C(=O)O)c2)c(S(=O)(=O)O)c1)c1ccc(C(=O)Nc2ccc(N=Nc3ccc(O)c(C(=O)O)c3)c(S(=O)(=O)O)c2)cc1` here?
**A.** Its T/C is 82 % of control.

**Q.** What about the T/C [2] of the same compound?
**A.** The T/C was 64 % of control.

**Q.** And the T/C (dose: 120.0 mg/kg/injection, schedule: Q01DX011 (ip), vehicle: carboxymethylcellulose (CMC))?
**A.** The T/C was 70 % of control.

**Q.** And the T/C (dose: 240.0 mg/kg/injection, schedule: Q01DX011 (ip), vehicle: carboxymethylcellulose (CMC))?
**A.** The T/C was 42 % of control.

**Q.** Which results are given for `CN1c2ccc3ccccc3c2Sc2ccc3ccccc3c21`?
**A.** T/C (dose: 8.25 mg/kg/injection, schedule: Q01DX011 (ip), vehicle: carboxymethylcellulose (CMC)): 53 % of control; T/C (dose: 16.5 mg/kg/injection, schedule: Q01DX011 (ip), vehicle: carboxymethylcellulose (CMC)): 71 % of control; T/C (dose: 25.0 mg/kg/injection, schedule: Q01DX011 (ip), vehicle: carboxymethylcellulose (CMC)): 59 % of control; T/C (dose: 29.0 mg/kg/injection, schedule: Q01DX011 (ip), vehicle: carboxymethylcellulose (CMC)): 66 % of control; T/C (dose: 33.0 mg/kg/injection, schedule: Q01DX011 (ip), vehicle: carboxymethylcellulose (CMC)): 46 % of control; T/C (dose: 44.0 mg/kg/injection, schedule: Q01DX011 (ip), vehicle: carboxymethylcellulose (CMC)): 80 % of control; T/C (dose: 50.0 mg/kg/injection, schedule: Q01DX011 (ip), vehicle: carboxymethylcellulose (CMC)): 69 % of control; T/C (dose: 66.0 mg/kg/injection, schedule: Q01DX011 (ip), vehicle: carboxymethylcellulose (CMC)): 29 % of control and 39 % of control and 40 % of control; T/C (dose: 150.0 mg/kg/injection, schedule: Q01DX011 (ip), vehicle: carboxymethylcellulose (CMC)): 27 % of control; T/C (dose: 200.0 mg/kg/injection, schedule: Q01DX011 (ip), vehicle: carboxymethylcellulose (CMC)): 48 % of control; T/C (dose: 387.5 mg/kg/injection, schedule: Q01DX011 (ip), vehicle: carboxymethylcellulose (CMC)): 55 % of control

**Q.** Which results are given for `Cc1ccc(CNc2ncnc3c2cnn3C2CCCCO2)cc1` (centres undefined)?
**A.** T/C (dose: 18.7 mg/kg/injection, schedule: Q01DX011 (ip), vehicle: methylcellulose (MC)): 109 % of control; T/C (dose: 37.5 mg/kg/injection, schedule: Q01DX011 (ip), vehicle: methylcellulose (MC)): 35 % of control; T/C (dose: 75.0 mg/kg/injection, schedule: Q01DX011 (ip), vehicle: methylcellulose (MC)): 88 % of control; T/C (dose: 150.0 mg/kg/injection, schedule: Q01DX011 (ip), vehicle: methylcellulose (MC)): 44 % of control

**Q.** `C=CCc1c[nH]c(=O)[nH]c1=O` was tested. Which T/C (dose: 67.5 mg/kg/injection, schedule: Q01DX011 (ip), vehicle: saline) did it give?
**A.** Its T/C is 99 % of control.

**Q.** And the T/C (dose: 125.0 mg/kg/injection, schedule: Q01DX011 (ip), vehicle: saline)?
**A.** Its T/C is 78 % of control.

**Q.** What about the T/C (dose: 250.0 mg/kg/injection, schedule: Q01DX011 (ip), vehicle: saline) of the same compound?
**A.** Its T/C is 72 % of control.

**Q.** Which results are given for `Nc1nc2n[nH]nc2c(=O)[nH]1`?
**A.** T/C (dose: 11.18 mg/kg/injection, schedule: Q01DX011 (ip), vehicle: carboxymethylcellulose (CMC)): 80 % of control; T/C (dose: 12.5 mg/kg/injection, schedule: Q01DX011 (ip), vehicle: other): 62 % of control and 80 % of control; T/C (dose: 13.55 mg/kg/injection, schedule: Q01DX011 (ip), vehicle: carboxymethylcellulose (CMC)): 85 % of control; T/C (dose: 17.88 mg/kg/injection, schedule: Q01DX011 (ip), vehicle: carboxymethylcellulose (CMC)): 98 % of control; T/C (dose: 22.35 mg/kg/injection, schedule: Q01DX011 (ip), vehicle: carboxymethylcellulose (CMC)): 70 % of control and 76 % of control; T/C (dose: 27.1 mg/kg/injection, schedule: Q01DX011 (ip), vehicle: carboxymethylcellulose (CMC)): 80 % of control; T/C (dose: 29.8 mg/kg/injection, schedule: Q01DX011 (ip), vehicle: carboxymethylcellulose (CMC)): 59 % of control; T/C (dose: 37.5 mg/kg/injection, schedule: Q01DX011 (sc), vehicle: carboxymethylcellulose (CMC)): 11 % of control; T/C (dose: 44.7 mg/kg/injection, schedule: Q01DX011 (ip), vehicle: carboxymethylcellulose (CMC)): 17 % of control and 33 % of control; T/C (dose: 75.0 mg/kg/injection, schedule: Q01DX011 (sc), vehicle: carboxymethylcellulose (CMC)): 5 % of control; T/C (dose: 89.4 mg/kg/injection, schedule: Q01DX011 (ip), vehicle: carboxymethylcellulose (CMC)): 4 % of control and 6 % of control; T/C (dose: 108.4 mg/kg/injection, schedule: Q01DX011 (ip), vehicle: carboxymethylcellulose (CMC)): 3 % of control and 4 % of control

Source: PubChem BioAssay AID180 (DTP/NCI, 2004)
